From the NIST ThermoML archive (doi:10.1021/je900372v)
Several values for one entry are separate records, joined by “and”; a condition that tells them apart may be missing. Equal entries are not always repeated.

Conditions: Diaphragm manometer

[CH3][Sb]([CH3])[CH3] [trimethylstibine]
Liquid
Conditions | vapor or sublimation pressure
249.24 K | 0.9742 kPa and 0.9744 kPa
250.24 K | 1.042 kPa
251.23 K | 1.113 kPa and 1.112 kPa
252.21 K | 1.186 kPa
253.21 K | 1.265 kPa and 1.264 kPa
258.19 K | 1.73 kPa
263.24 K | 2.345 kPa and 2.343 kPa
268.3 K | 3.134 kPa and 3.136 kPa
273.35 K | 4.143 kPa
278.36 K | 5.398 kPa and 5.399 kPa and 5.395 kPa
283.33 K | 6.941 kPa and 6.94 kPa and 6.938 kPa
288.27 K | 8.822 kPa and 8.821 kPa
290.71 K | 9.9 kPa and 9.899 kPa
293.24 K | 11.13 kPa
296.22 K | 12.74 kPa and 12.73 kPa

[CH3][Sb]([CH3])[C](C)(C)C [tert-butyldimethylantimony]
Conditions | vapor or sublimation pressure
248.34 K, Crystal | 0.03829 kPa and 0.03817 kPa and 0.03826 kPa
253.33 K, Crystal | 0.05845 kPa and 0.05851 kPa and 0.05854 kPa
258.35 K, Crystal | 0.08805 kPa and 0.08784 kPa and 0.08807 kPa
263.35 K, Crystal | 0.1298 kPa and 0.1299 kPa
268.55 K, Crystal | 0.1898 kPa and 0.19 kPa
273.4 K, Crystal | 0.2687 kPa and 0.2685 kPa
278.29 K, Crystal | 0.374 kPa and 0.3741 kPa
283.32 K, Crystal | 0.5167 kPa and 0.5168 kPa and 0.5164 kPa
288.32 K, Liquid | 0.7023 kPa and 0.7022 kPa
293.29 K, Liquid | 0.9422 kPa and 0.9421 kPa and 0.942 kPa
298.29 K, Liquid | 1.251 kPa
303.28 K, Liquid | 1.642 kPa
308.27 K, Liquid | 2.131 kPa and 2.132 kPa
